Results on 44 compounds are retold here after patent US8759366B2, “Aminopyrimidines as SYK inhibitors” (Merck Sharp & Dohme Corp., priority 2009, dated 2014).

The first assay concerns the target recombinant human SYK (GST-hSYK fusion protein) (Homo sapiens (Human), UniProt P43405). The settings on record: read-out: rhSYK Activity; Table 26.
From the text: Homogeneous Time-Resolved Fluorescence (HTRF) Assay for the Recombinant Human SYK Enzyme:
Regarding `O=C(O)C1CCC(F)(c2ncc(-c3cccc(Nc4nccc(C(F)(F)F)n4)c3)s2)CC1` (centres unmarked) [Example 25-6], the IC50 was under 100 nM.

Staying with this assay, now noted: read-out: rhSYK Activity; Table 33-A.
In the case of `Cc1cc(Nc2ncc(F)c(C)n2)cc(-c2cnc(C3(O)CCC(C(=O)O)C(C)(C)C3C)s2)c1` (centres unmarked) [33A-74], the IC50 was under 100 nM.

In the case of `CCOC(=O)C1CCC(O)(c2ncc(-c3cc(C)cc(Nc4nccc(C(F)(F)F)n4)c3)s2)CC1` (centres unmarked) [33A-5], the IC50 is under 100 nM.

The assay is the same for the next values; noted with them: read-out: rhSYK Activity; Table 33B.
Turning to `Cc1cc(Nc2nccc(C(F)(F)F)n2)cc(-c2cnc(C3(O)CC(C(=O)O)C(C)(C)C3)s2)c1` (centres unmarked) [Example 33B-3], the IC50 is under 100 nM.

Turning to `Cc1cc(Nc2nccc(C(F)(F)F)n2)cc(-c2cnc(C3(O)CC(C(=O)O)C(C)(C)C3)s2)c1` (single isomer, unassigned) [Example 33B-7], the IC50 was under 100 nM.

For `Cc1cc(Nc2nccc(C)n2)cc(-c2cnc(C3(O)CCC(C(=O)O)C(c4ccc(F)cc4)C3)s2)c1` (centres unmarked) [Example 33B-31], the IC50 is under 100 nM.

In the case of `Cc1cc(Nc2nccc(C(F)(F)F)n2)cc(-c2cnc(C3(O)CC(C(=O)O)C(C)(C)C3)s2)c1` (single isomer, unassigned) [Example 33B-4], the IC50 was under 100 nM.

Still in this assay, the particulars now being: read-out: rhSYK Activity; Table 33D.
On to `Cc1cc(Nc2nccc(C(F)(F)F)n2)cc(-c2cnc(C(C)(O)c3ccc(NC(=O)CCC(=O)O)cc3)s2)c1` (centres unmarked) [Example 33D-14], for which the IC50 is under 100 nM.

Staying with this assay, now noted: read-out: rhSYK Activity; Table 113C.
As for `Cc1cc(Nc2nccc(C(C)C)n2)cc(-c2cnc(C3(O)CCCN(C(=O)OC(C)(C)C)CC3)s2)c1` (single isomer, unassigned) [113C-21], the IC50 was in the range of 1000 to 10000 nM.

`COc1nc(Nc2cc(C)cc(-c3cnc(C4(O)CCCNCC4)s3)c2)ncc1Cl` (single isomer, unassigned) [113C-16]: the IC50 was under 100 nM.

`O=C1CCC(O)(c2ncc(-c3cccc(Nc4nccc(C(F)(F)F)n4)c3)s2)CCN1` (centres unmarked) [113C-8]: the IC50 was under 100 nM.

Regarding `Cc1cc(Nc2nccc(C(C)C)n2)cc(-c2cnc(C3(O)CCCN(C(=O)OC(C)(C)C)CC3)s2)c1` (single isomer, unassigned) [113C-20], the IC50 is 100 to 1000 nM.

Regarding `Cc1cc(Nc2nccc(C(C)F)n2)cc(-c2cnc(C3(O)CCNC(=O)CC3)s2)c1` (single isomer, unassigned) [113C-4], the IC50 is under 100 nM.

The assay is the same for the next values; noted with them: read-out: rhSYK Activity; Table 113D, lower part (Structure).
Regarding `Cc1cc(Nc2nccc(C(F)(F)F)n2)cc(-c2cnc(C3(O)CCC(C(=O)O)OC3)s2)c1` (single isomer, unassigned) [Example 113D-12], the IC50 is under 100 nM.

The same assay, now with this note: read-out: rhSYK Activity; Table 113D, upper part.
For the compound `COC(=O)c1ccc(/C=C/c2ncc(-c3cc(C)cc(Nc4nccc(C(F)(F)F)n4)c3)s2)cc1` [Example 113D-4], the IC50 fell in the range of 100 to 1000 nM.

The assay is the same for the next values; noted with them: read-out: rhSYK Activity; Table 119; HTRF assay, IC50 class symbols.
As for `Cc1cc(Nc2nccc(C(F)(F)F)n2)cc(-c2cnc(C3(O)CCC(C(=O)NCCN4CCCC4)CC3)s2)c1` (centres unmarked) [Example 119-64], the IC50 was under 100 nM.

The assay is the same for the next values; noted with them: read-out: rhSYK Activity; recombinant human SYK, HTRF assay; class symbols.
`Cc1cc(Nc2ncc(F)c(C)n2)cc(-c2cnc(C3(O)CCN(C(N)=O)C3)s2)c1` (centres unmarked) [Example 54B-16]: the IC50 is under 100 nM.

`Cc1cc(Nc2nccc(C(F)(F)F)n2)cc(-c2cnc(C3(O)CCN(C(=O)CC(=O)O)CC3)s2)c1` [Example 54A-26]: the IC50 was under 100 nM.

Staying with this assay, now noted: read-out: rhSYK activity.
For the compound `Cc1cc(Nc2nccc(C(F)(F)F)n2)cc(-c2cnc(C3(NC(=O)C4(C(N)=O)CC4)COC3)s2)c1` [Example 67-1], the IC50 was under 100 nM.

As to `CCCSc1ccnc(Nc2cc(C)cc(-c3cnc(C4(O)CCC4)s3)c2)n1` [Example 108A-42], the IC50 is under 100 nM.

Take `Cc1cc(Nc2nccc(OCCN3CC(F)C(F)C3)n2)cc(-c2cnc(C3(O)CCC3)s2)c1` (centres unmarked) [Example 108A-5]: the IC50 was under 100 nM.

The target of the next assay is rhSYK (Homo sapiens (Human), UniProt P43405). The settings on record: read-out: rhSYK activity.
On to `Cc1cc(Nc2nccc(C(F)(F)F)n2)cc(-c2cnc(C3(O)CCC(N(C)C)CC3)s2)c1` (centres unmarked) [Example 4C-33], for which the IC50 was under 100 nM.

On to `CC(O)(CO)c1ncc(-c2cc(F)cc(Nc3ncc(F)c(C4CC4)n3)c2)s1` (centres unmarked) [Example 57, 2-(5-{3-[(4-cyclopropyl-5-fluoropyrimidin-2-yl)amino]-5-fluorophenyl}-1,3-thiazol-2-yl)propane-1,2-diol], for which the IC50 was under 100 nM.

For `OC1(c2ncc(-c3cc(Nc4nccc(C(F)(F)F)n4)ccc3F)s2)CCC1` [Example 1, 1-[5-(2-fluoro-5-{[4-(trifluoromethyl)pyrimidin-2-yl]amino}phenyl)-1,3-thiazol-2-yl]cyclobutanol], the IC50 is 100 to 1000 nM.

`FC(F)(F)c1ccnc(Nc2cc(Br)cc(-c3cncs3)c2)n1` [Intermediate 11, N-[3-bromo-5-(1,3-thiazol-5-yl)phenyl]-4-(trifluoromethyl)pyrimidin-2-amine]: the IC50 was in the range of 100 to 1000 nM.

As for `CC(=O)NS(=O)(=O)C1(c2ncc(-c3cc(C)cc(Nc4nccc(C(F)(F)F)n4)c3)s2)CCC1` [Example 74, N-({1-[5-(3-methyl-5-{[4-(trifluoromethyl)pyrimidin-2-yl]amino}phenyl)-1,3-thiazol-2-yl]-cyclobutyl}sulfonyl)acetamide], the IC50 is under 100 nM.

Take `CC(C)(C)OC(=O)N1CCC(C(C)(O)c2ncc(-c3cccc(Nc4nccc(C(F)(F)F)n4)c3)s2)CC1` (centres unmarked) [Example 15(1), tert-butyl 4-{1-hydroxy-1-[5-(3-{[4-(trifluoromethyl)pyrimidin-2-yl]amino}phenyl)-1,3-thiazol-2-yl]ethyl}piperidine-1-carboxylate]: the IC50 fell in the range of 100 to 1000 nM.

As to `Cc1cc(Nc2nccc(C(F)(F)F)n2)cc(-c2cnc([C@]3(F)CC[C@@H](C(=O)O)CC3)s2)c1` [Example 26, cis-4-Fluoro-4-[5-(3-methyl-5-{[4-(trifluoromethyl)pyrimidin-2-yl]amino}phenyl)-1,3-thiazol-2-yl]cyclohexanecarboxylic acid], the IC50 was under 100 nM.

In the case of `Cc1cc(Nc2nccc(C(F)(F)F)n2)cc(-c2cnc(C3(O)CCN(S(N)(=O)=O)CC3)s2)c1` [Example 49, 4-hydroxy-4-[5-(3-methyl-5-{[4-(trifluoromethyl)pyrimidin-2-yl]amino}phenyl)-1,3-thiazol-2-yl]piperidine-1-sulfonamide], the IC50 is under 100 nM.

In the case of `CC1(C)CC(O)(c2ncc(-c3cccc(Nc4nccc(C(F)(F)F)n4)c3)s2)CC(C)(C)S1` [Example 4B-8], the IC50 fell in the range of 1000 to 10000 nM.

As for `Cc1cc(Nc2nccc(C(F)(F)F)n2)cc(-c2cnc(C3(O)C[C@H]4CC(CC(=O)O)C[C@H]4C3)s2)c1` (some centres unmarked) [Example 4B-27], the IC50 was under 100 nM.

`COC(=O)C1CCC(O)(c2ncc(-c3cc(C)cc(Nc4nccc(C)n4)c3)s2)CC1C(C)C` (centres unmarked) [Example 4C-17]: the IC50 is under 100 nM.

Take `Cc1cc(Nc2nccc(C(F)(F)F)n2)cc(-c2cnc(C3(O)CCC(N)(C(=O)O)CC3)s2)c1` (centres unmarked) [Example 41, 1-amino-4-hydroxy-4-[5-(3-methyl-5-{[4-(trifluoromethyl)pyrimidin-2-yl]amino}phenyl)-1,3-thiazol-2-yl]cyclohexanecarboxylic acid]: the IC50 is under 100 nM.

`OC(c1ncc(-c2cc(Nc3nccc(C(F)(F)F)n3)cc(N3CCOCC3)c2)s1)(C1CC1)C1CC1` [Example 24, dicyclopropyl{5-[3-(morpholin-4-yl)-5-{[4-(trifluoromethyl)pyrimidin-2-yl]amino}phenyl]-1,3-thiazol-2-yl}methanol]: the IC50 was under 100 nM.

As for `Cc1cc(Nc2nccc(C(F)(F)F)n2)cc(-c2cnc(C3(O)CCC(=O)CC3)s2)c1` [Example 7, 4-hydroxy-4-[5-(3-methyl-5-{[4-(trifluoromethyl)pyrimidin-2-yl]amino}phenyl)-1,3-thiazol-2-yl]cyclohexanone], the IC50 is under 100 nM.

As to `Cc1cc(Nc2nccc(C(F)(F)F)n2)cc(-c2cnc(C(C)(C)O)s2)c1` [Example 4, 2-[5-(3-methyl-5-{[4-(trifluoromethyl)pyrimidin-2-yl]amino}phenyl)-1,3-thiazol-2-yl]propan-2-ol], the IC50 is under 100 nM.

Consider `Cc1cc(Nc2nccc(C)n2)cc(-c2cnc(C3(O)CCC(C)(CC(=O)O)CC3)s2)c1` (single isomer, unassigned) [Example 4C-12], for which the IC50 is under 100 nM.

`CC(C)(c1ncc(-c2cc(N)cc(Nc3nccc(C(F)(F)F)n3)c2)s1)S(N)(=O)=O` [Example 71, 2-[5-(3-amino-5-{[4-(trifluoromethyl)pyrimidin-2-yl]amino}phenyl)-1,3-thiazol-2-yl]propane-2-sulfonamide]: the IC50 was under 100 nM.

With `OC1(c2ncc(-c3cccc(Nc4nccc(C(F)(F)F)n4)c3)s2)CCN(c2ccc(F)cc2)C1` (centres unmarked) [4D-2], the IC50 was in the range of 1000 to 10000 nM.

In the case of `OC1(c2ncc(-c3cc(Nc4nccc(C(F)(F)F)n4)cc(C(F)F)c3)s2)CCC1` [Example 28, 1-{5-[3-(difluoromethyl)-5-{[4-(trifluoromethyl)pyrimidin-2-yl]amino}phenyl]-1,3-thiazol-2-yl}cyclobutanol], the IC50 is under 100 nM.

Consider `CCNC(=O)Nc1cc(Nc2nccc(C(F)(F)F)n2)cc(-c2cnc(C3CCC(C(N)=O)CC3)s2)c1` (single isomer, unassigned) [Example 20(2), 4-[5-(3-[(ethylcarbamoyl)amino]-5-{[4-(trifluoromethyl)pyrimidin-2-yl]amino}phenyl)-1,3-thiazol-2-yl]cyclohexanecarboxamide], for which the IC50 was under 100 nM.

Turning to `Cc1cc(Nc2nccc(C(F)(F)F)n2)cc(-c2cnc(C3(O)CCN(C(=O)CCCC(=O)O)CC3)s2)c1` [4D-13], the IC50 is under 100 nM.

Regarding `Cc1cc(Nc2nccc(C(F)(F)F)n2)cc(-c2cnc(C3(O)CCNC(=O)CC3)s2)c1` (centres unmarked) [Example 10, 5-Hydroxy-5-[5-(3-methyl-5-{[4-(trifluoromethyl)pyrimidin-2-yl]amino}phenyl)-1,3-thiazol-2-yl]azepan-2-one], the IC50 is under 100 nM.

Turning to `CC(O)(c1ncc(-c2cccc(Nc3nccc(C(F)(F)F)n3)c2)s1)C1CCNCC1` (centres unmarked) [Example 15(2), 1-(piperidin-4-yl)-1-[5-(3-{[4-(trifluoromethyl)pyrimidin-2-yl]amino}phenyl)-1,3-thiazol-2-yl]ethanol], the IC50 was under 100 nM.
